Test results: BindingDB's records for doi:10.1016/s0960-894x(99)00210-3 (Tartu University, 1999)

Test: Inhibitory activity against Protein kinase C beta isoform (PKC) from pig spleen.

Row | Structure (SMILES) | IC50 [nM]
1 | N=C(N)NCCC[C@H](NC(=O)[C@H](CCCNC(=N)N)NC(=O)[C@H](CCCNC(=N)N)NC(=O)[C@H](CCCNC(=N)N)NC(=O)[C@H](CCCNC(=N)N)NC(=O)[C@H](CCCNC(=N)N)NC(=O)CCCNC(=O)[C@H]1OC(n2cnc3c(N)ncnc32)[C@H](O)[C@@H]1O)C(=O)O (stereo partly specified) | 1500
2 | C[C@H](NC(=O)CCNC(=O)CCNC(=O)[C@H]1OC(n2cnc3c(N)ncnc32)[C@H](O)[C@@H]1O)C(=O)N[C@@H](CCCNC(=N)N)C(=O)N[C@@H](CCCNC(=N)N)C(=O)N[C@@H](CCCNC(=N)N)C(=O)N[C@@H](CCCNC(=N)N)C(=O)N[C@@H](CCCNC(=N)N)C(=O)N[C@@H](CCCNC(=N)N)C(=O)O (stereo partly specified) | 2800
3 | N=C(N)NCCC[C@H](NC(=O)[C@H](CCCNC(=N)N)NC(=O)[C@H](CCCNC(=N)N)NC(=O)[C@H](CCCNC(=N)N)NC(=O)[C@H](CCCNC(=N)N)NC(=O)[C@H](CCCNC(=N)N)NC(=O)CNC(=O)[C@H]1OC(n2cnc3c(N)ncnc32)[C@H](O)[C@@H]1O)C(=O)O (stereo partly specified) | 10000
4 | N=C(N)NCCC[C@H](NC(=O)[C@H](CCCNC(=N)N)NC(=O)[C@H](CCCNC(=N)N)NC(=O)[C@H](CCCNC(=N)N)NC(=O)[C@H](CCCNC(=N)N)NC(=O)[C@H](CCCNC(=N)N)NC(=O)CCNC(=O)[C@H]1OC(n2cnc3c(N)ncnc32)[C@H](O)[C@@H]1O)C(=O)O (stereo partly specified) | 3000
5 | CC(=O)NCCCCCC(=O)N[C@@H](CCCN=C(N)N)C(=O)N[C@@H](CCCNC(=N)N)C(=O)N[C@@H](CCCNC(=N)N)C(=O)N[C@@H](CCCNC(=N)N)C(=O)N[C@@H](CCCNC(=N)N)C(=O)N[C@@H](CCCN=C(N)N)C(=O)O [(R)-2-{(R)-2-[2-((R)-2-{(R)-2-[2-(6-Acetylamino-hexanoylamino)-5-guanidino-pentanoylamino]-5-guanidino-pentanoylamino}-5-guanidino-pentanoylamino)-5-guanidino-pentanoylamino]-5-guanidino-pentanoylamino}-5-guanidino-pentanoic acid] | > 100000
6 | C[C@H](NC(=O)C[C@H](NC(=O)C[C@H](NC(=O)[C@H]1O[C@@H](n2cnc3c(N)ncnc32)[C@H](O)[C@@H]1O)C(=O)O)C(=O)O)C(=O)N[C@@H](CCCNC(=N)N)C(=O)N[C@@H](CCCNC(=N)N)C(=O)N[C@@H](CCCNC(=N)N)C(=O)N[C@@H](CCCNC(=N)N)C(=O)N[C@@H](CCCNC(=N)N)C(=O)N[C@@H](CCCNC(=N)N)C(=O)O | 27000
